Experimental data reported in PubChem BioAssay AID720588 (Broad Institute, 2013).
Activity calls are given as the source filed them.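 The calls were made as follows: active = fitted curve falls past a set limit of signal loss at no more than twice the top dose; inconclusive = flat fit between 30 and 70% signal loss, or poor fit; inactive = signal rise, flat within 30%, or crossing too high.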

experiment: ATP-based viability loss in HEK293T cells – cell-based, CellTiter-Glo luminescence, cherry-pick, set 3, cytotoxicity control, dose response (AID 720588); details: HEK293T viability, CellTiter-Glo ATP luminescence, 72 h; at 26 µM (top of the series)

With `CN1C(=O)c2cc(NC(=O)c3ccc(C(F)(F)F)cc3)ccc2OC[C@@H]2O[C@@H](CC(=O)NC3Cc4ccccc4C3)CC[C@H]21` as the compound, how does the activity change, negative = cytotoxicity read?
Its activity change, negative = cytotoxicity is -32.5% (inactive).

For `C[C@@H]1CN([C@@H](C)CO)C(=O)Cc2cc(NC(=O)Cn3cnnn3)ccc2O[C@@H]1CN(C)Cc1ccc(Oc2ccccc2)cc1`, which activity change, negative = cytotoxicity is on record?
The activity change, negative = cytotoxicity was 14.3% (inactive).

For `CC(C)c1oc(=O)cc2c1[C@@H](O)[C@H]1OC(=O)[C@@]3(C)CC[C@@H](O)[C@@]2(C)C13` (some centres not stated), which activity change, negative = cytotoxicity is on record?
The activity change, negative = cytotoxicity was -27.6% (inactive).

With `COc1cc(C(=O)N2CCC(N3CCN(C)CC3)CC2)ccc1Nc1ncc2c(n1)N(C)c1ccccc1C(=O)N2C` as the compound, how does the activity change, negative = cytotoxicity read?
The activity change, negative = cytotoxicity was -1.13% (inactive).

Which activity change, negative = cytotoxicity does the source give for `COC(=O)COc1ccc(-c2nccc(-c3ccccn3)n2)cc1` here?
Its activity change, negative = cytotoxicity is 19.3% (inactive).

For `N#CC1C=Cc2c(ccc3ccccc23)N1C(=O)c1ccccc1` (configuration not stated), which activity change, negative = cytotoxicity is on record?
Its activity change, negative = cytotoxicity is -20.1% (inactive).

Which activity change, negative = cytotoxicity does the source give for `COc1cc(OC)cc(-c2cc3nc(C)c(CCC(=O)NCc4ccccc4)c(C)n3n2)c1` here?
The activity change, negative = cytotoxicity was -4.7% (inactive).

With `COC(=O)C[C@H]1CC[C@H]2[C@@H](COc3ccc(NC(=O)Nc4cccc(Cl)c4)cc3C(=O)N2C)O1` as the compound, how does the activity change, negative = cytotoxicity read?
Its activity change, negative = cytotoxicity is -24.3% (inactive).

For `CCc1ccc(Cn2ncc3c(C(=O)O)cc(C)nc32)cc1`, which activity change, negative = cytotoxicity is on record?
Its activity change, negative = cytotoxicity is -2.66% (inactive).

Which activity change, negative = cytotoxicity does the source give for `CCN(CC)C(=O)CN1C(=O)C(=O)c2ccccc21` here?
Its activity change, negative = cytotoxicity is -11% (inactive).

With `Cc1ccc(Cl)cc1NC(=O)Cn1cc(C(F)(F)F)cc(Cl)c1=O` as the compound, how does the activity change, negative = cytotoxicity read?
The activity change, negative = cytotoxicity was 0.88% (inactive).

With `CO[C@H]1CN(C)C(=O)c2cc(NC(=O)NC(C)C)ccc2OC[C@H](C)N(Cc2ccc(-c3ccccn3)cc2)C[C@@H]1C` as the compound, how does the activity change, negative = cytotoxicity read?
The activity change, negative = cytotoxicity was -13.6% (inactive).

For `O=C1C(=O)N(CCS(=O)(=O)c2ccccc2)c2ccccc21`, which activity change, negative = cytotoxicity is on record?
Its activity change, negative = cytotoxicity is 17.1% (inactive).

With `C[C@H]1CN([C@@H](C)CO)C(=O)Cc2cc(NC(=O)CCCCCC(=O)Nc3ccccc3N)ccc2O[C@H]1CN(C)Cc1ccc(Oc2ccccc2)cc1` as the compound, how does the activity change, negative = cytotoxicity read?
Its activity change, negative = cytotoxicity is -3.08% (inactive).

For `COc1ccc(NS(=O)(=O)c2cc(NC(=O)CNC(=O)c3cccc(OC)c3)ccc2C)cc1`, which activity change, negative = cytotoxicity is on record?
The activity change, negative = cytotoxicity was -20.6% (inactive).

Which activity change, negative = cytotoxicity does the source give for `C=CCn1c(O)c(N=Nc2ccccc2)c2ccccc21` here?
The activity change, negative = cytotoxicity was 11.3% (inactive).

For `CCCN(C)C[C@H]1Oc2ncc(-c3ccccc3)cc2C(=O)N([C@@H](C)CO)C[C@H]1C`, which activity change, negative = cytotoxicity is on record?
The activity change, negative = cytotoxicity was 2.32% (inactive).

With `CCCCNC(=O)C(c1ccc(OCC(=O)OC)c(C(=O)OC)c1)N(CCOC)C(=O)CCCCCN1C(=O)NC(c2ccc(-c3ccccc3)cc2)C(C(=O)OCc2ccccc2)=C1C` (configuration not stated) as the compound, how does the activity change, negative = cytotoxicity read?
Its activity change, negative = cytotoxicity is 2.6% (inactive).

With `COc1cccc(CN2CCC2(C)C(=O)Nc2cccc3cccnc23)c1F` (configuration not stated) as the compound, how does the activity change, negative = cytotoxicity read?
Its activity change, negative = cytotoxicity is -6.02% (inactive).

Which activity change, negative = cytotoxicity does the source give for `COc1ccc(NC(=O)N2CCCCN3[C@H](CO)[C@H](c4ccc(C#CCC(C)C)cc4)[C@H]3C2)cc1` here?
Its activity change, negative = cytotoxicity is -56.2% (inactive).

For `COc1cc(/C=N\Nc2nc(-c3ccc(C)cc3)c(NC(C)=O)s2)ccc1O`, which activity change, negative = cytotoxicity is on record?
The activity change, negative = cytotoxicity was -4.57% (inactive).

With `C[C@@H]1CN([C@H](C)CO)C(=O)Cc2cc(N(C)C)ccc2O[C@H]1CN(C)Cc1ccc(C(=O)Nc2ccccc2N)cc1` as the compound, how does the activity change, negative = cytotoxicity read?
Its activity change, negative = cytotoxicity is -25.9% (inactive).

For `Cc1nc2cc(-c3ccc(Cl)cc3)nn2c(C)c1CCC(=O)NC(C)c1ccc2c(c1)OCCO2` (configuration not stated), which activity change, negative = cytotoxicity is on record?
Its activity change, negative = cytotoxicity is -34.9% (inactive).

For `COCC(=O)Nc1ccc2c(c1)[C@@H]1C[C@@H](CC(=O)NCc3ccc(-c4ccccc4)cc3)O[C@@H](CO)[C@@H]1O2`, which activity change, negative = cytotoxicity is on record?
Its activity change, negative = cytotoxicity is 13.6% (inactive).

For `N#C[C@H]1[C@H](c2ccc(C#Cc3ccccc3F)cc2)[C@@H](CO)N1C(=O)C1CCOCC1`, which activity change, negative = cytotoxicity is on record?
The activity change, negative = cytotoxicity was -4.64% (inactive).

For `CN(C)[C@@H]1CCC[C@@H]1OC(=O)C(c1ccccc1)c1ccccc1`, which activity change, negative = cytotoxicity is on record?
The activity change, negative = cytotoxicity was -11.6% (inactive).

For `C[C@H]1CN([C@@H](C)CO)C(=O)Cc2cc(NC(=O)CCCCCC(=O)Nc3ccccc3N)ccc2O[C@H]1CN(C)Cc1ccc(C(F)(F)F)cc1`, which activity change, negative = cytotoxicity is on record?
Its activity change, negative = cytotoxicity is -19% (inactive).

With `N#C[C@H]1[C@H](c2ccc(-c3ccccc3F)cc2)[C@@H](CO)N1C(=O)Cc1ccccc1` as the compound, how does the activity change, negative = cytotoxicity read?
Its activity change, negative = cytotoxicity is -28.3% (inactive).

Which activity change, negative = cytotoxicity does the source give for `CC(C)(C)[S@](=O)N1Cc2cc(C(=O)NCC(F)(F)F)nc(-c3cccc(-c4cccc(F)c4)c3)c2[C@@H]1CCO` here?
Its activity change, negative = cytotoxicity is -2.37% (inactive).

With `CC(C)c1ccc(OCc2cccc(C(=O)N/N=C/c3cccnc3)c2)cc1` as the compound, how does the activity change, negative = cytotoxicity read?
The activity change, negative = cytotoxicity was -18.1% (inactive).

With `O=C(O)c1ccc(N/N=C/c2cc(Br)cs2)cc1` as the compound, how does the activity change, negative = cytotoxicity read?
The activity change, negative = cytotoxicity was -9.61% (inactive).

Which activity change, negative = cytotoxicity does the source give for `CC1(C(=O)NCc2ccco2)Cc2c(-c3cccc(C(N)=O)c3)ccnc2O1` (configuration not stated) here?
The activity change, negative = cytotoxicity was -5.89% (inactive).

With `CN(C)c1ccc(/C=N/Nc2nc3ccccc3o2)cc1` as the compound, how does the activity change, negative = cytotoxicity read?
The activity change, negative = cytotoxicity was -21.5% (inactive).

With `S=C(NCCN1CCOCC1)Nc1ccccc1Cl` as the compound, how does the activity change, negative = cytotoxicity read?
Its activity change, negative = cytotoxicity is -17.7% (inactive).

Which activity change, negative = cytotoxicity does the source give for `COc1ccc(C2=Nn3c([n+](C)c4ccccc43)SC2)cc1` here?
Its activity change, negative = cytotoxicity is -33.2% (inactive).

For `COc1cc2c(cc1OC)C(C)N(C(=O)c1cc(Cl)nc(Cl)c1)CC2` (configuration not stated), which activity change, negative = cytotoxicity is on record?
Its activity change, negative = cytotoxicity is -13.4% (inactive).

For `C=CCOc1ccccc1C(=O)/C=C1/C(=O)Nc2ccccc21`, which activity change, negative = cytotoxicity is on record?
Its activity change, negative = cytotoxicity is -8.17% (inactive).
